ChEMBL document CHEMBL3994601, “Polyacetylenic Oleanane-Type Triterpene Saponins from the Roots of Panax japonicus” (J Nat Prod, 2016)
The source made the active and inactive calls. The calls are words filed in the database; no cut-off is given here.

Key:
VSMC = assay: Antiproliferative activity against angiotensin 2-stimulated Wistar rat VSMC after 48 hrs by MTT method; format: functional, cell-based
PC-12 = assay: Neuroprotective activity against hydrogen peroxide-induced cell damage in rat PC12 cells assessed as increase in cell viability at 3.125 to 50 uM preincubated with compound followed by H2O2 challenge by MTT assay; format: functional, cell-based

COC(=O)[C@H]1O[C@@H](O[C@H]2CC[C@]3(C)[C@H]4CC=C5[C@@H]6CC(C)(C)CC[C@]6(C(=O)O[C@@H]6O[C@H](CO)[C@@H](O)[C@H](O)[C@H]6O)CC[C@@]5(C)[C@]4(C)CC[C@H]3C2(C)C)[C@H](O)[C@@H](O)[C@@H]1O
growth inhibition (GI) (VSMC): Dose-dependent effect

CCCCOC(=O)[C@H]1O[C@@H](O[C@H]2CC[C@]3(C)[C@H]4CC=C5[C@@H]6CC(C)(C)CC[C@]6(C(=O)O)CC[C@@]5(C)[C@]4(C)CC[C@H]3C2(C)C)[C@H](O[C@@H]2O[C@H](CO)[C@@H](O)[C@H](O)[C@H]2O)[C@@H](O)[C@@H]1O
Activity (PC-12): Active

C=C[C@@H](O)C#CC#CC[C@@H](O)[C@@H](CCCCCCC)OC(=O)[C@H]1O[C@@H](O[C@H]2CC[C@]3(C)[C@H]4CC=C5[C@@H]6CC(C)(C)CC[C@]6(C(=O)O)CC[C@@]5(C)[C@]4(C)CC[C@H]3C2(C)C)[C@H](O[C@@H]2O[C@H](CO)[C@@H](O)[C@H](O)[C@H]2O)[C@@H](O)[C@@H]1O
Activity (PC-12): Active

CCCCOC(=O)[C@H]1O[C@@H](O[C@H]2CC[C@]3(C)[C@H]4CC=C5[C@@H]6CC(C)(C)CC[C@]6(C(=O)O[C@@H]6O[C@H](CO)[C@@H](O)[C@H](O)[C@H]6O)CC[C@@]5(C)[C@]4(C)CC[C@H]3C2(C)C)[C@H](O)[C@@H](O)[C@@H]1O[C@@H]1O[C@@H](CO)[C@H](O)[C@H]1O
Activity (PC-12): Active
